Reference: patent publication US4435404A, “Carbostyril derivatives” (priority 1980, dated 1984)
Read-outs that look alike come from different tables or passages of the source.

Tests used:
[1] = system: collagen-induced aggregation in rabbit platelet; test: Inhibition effect on collagen-induced aggregation in rabbit platelet; type: cell-based; conditions: Oryctolagus cuniculus, Platelet, read-out: Inhibition effect on collagen-induced aggregation
Experimental: (§1) The platelet aggregation inhibitory effect is measured by using AG-II aggregometer (manufactured by Bryston Manufacturing Co.). The blood sample used for the test is a 1/9 (by volume) mixture of sodium citrate and whole blood collected from rabbit. Said sample is subjected to 10-minute centrifugal separation at 1,000 r.p.m. to obtain a platelet rich plasma (PRP). The thus obtained PRP is separated, and the remaining blood sample is further subjected to 15-minute centrifugal separation at 3,000 r.p.m. to obtain a platelet poor plasma (PPP).
(§2) The number of platelets in the PRP is counted by the Brecher-Clonkite Method, and the PRP is diluted with the PPP to prepare a PRP sample with platelet concentration of 300,000/mm^3 for the adenosine diphosphate (ADP)-induced aggregation test. There is also prepared a PRP sample with platelet concentration of 450,000/mm^3 for the collagen-induced aggregation test.
(§3) 0.6 Milliliter of said PRP sample is added into 0.01 ml of a solution of a test compound of a predetermined concentration and the mixture is placed in a 37° C. thermostat for one minute. Then 0.07 ml of an ADP or collagen solution is added to the mixture. Transmittance of this mixture is determined and the change of transmittance is recorded by using the aggregometer at stirrer speed of 1,100 r.p.m. […] The ADP solution is adjusted to a concentration of 7.5×10^-5 M, and the collagen solution is prepared by triturating 100 mg of collagen with 5 ml of said buffer and the supernatant is used as collagen inducer. Acetylsalicylic acid is used as control for the ADP-induced aggregation test and the collagen-induced aggregation test, respectively. The platelet aggregation inhibitory effect is measured in terms of percent inhibition with respect to the aggregation rate of the controls. The aggregation rate is calculated from the following formula:
(§4) Aggregation rate=[(c-a)/(b-a)]×100
(§5) b: transmittance of PRP containing a test compound and an aggregation inducer

[2] = system: ADP-induced aggregation in rabbit platelet; test: Inhibition effect on ADP-induced aggregation in rabbit platelet; type: cell-based; conditions: Oryctolagus cuniculus, Platelet; for inhibition at 100 µM: concentration of the test compound solution 10^-4 mole
Experimental: as §1, §2, §3, §4, §5

[3] = target: T1, cyclic AMP phosphodiesterase (Oryctolagus cuniculus, UniProt G1ST54); test: Obstructive action against cyclic AMP phosphodiesterase; type: biochemical; conditions: rabbit platelet enzyme, 30° C., 20 minutes
T1 construct: the supernatant was collected to use it as a crude enzyme solution; from tissue; host or cells: rabbit platelets (from platelet-rich plasma)
T1 sequence (G1ST54 1-1128): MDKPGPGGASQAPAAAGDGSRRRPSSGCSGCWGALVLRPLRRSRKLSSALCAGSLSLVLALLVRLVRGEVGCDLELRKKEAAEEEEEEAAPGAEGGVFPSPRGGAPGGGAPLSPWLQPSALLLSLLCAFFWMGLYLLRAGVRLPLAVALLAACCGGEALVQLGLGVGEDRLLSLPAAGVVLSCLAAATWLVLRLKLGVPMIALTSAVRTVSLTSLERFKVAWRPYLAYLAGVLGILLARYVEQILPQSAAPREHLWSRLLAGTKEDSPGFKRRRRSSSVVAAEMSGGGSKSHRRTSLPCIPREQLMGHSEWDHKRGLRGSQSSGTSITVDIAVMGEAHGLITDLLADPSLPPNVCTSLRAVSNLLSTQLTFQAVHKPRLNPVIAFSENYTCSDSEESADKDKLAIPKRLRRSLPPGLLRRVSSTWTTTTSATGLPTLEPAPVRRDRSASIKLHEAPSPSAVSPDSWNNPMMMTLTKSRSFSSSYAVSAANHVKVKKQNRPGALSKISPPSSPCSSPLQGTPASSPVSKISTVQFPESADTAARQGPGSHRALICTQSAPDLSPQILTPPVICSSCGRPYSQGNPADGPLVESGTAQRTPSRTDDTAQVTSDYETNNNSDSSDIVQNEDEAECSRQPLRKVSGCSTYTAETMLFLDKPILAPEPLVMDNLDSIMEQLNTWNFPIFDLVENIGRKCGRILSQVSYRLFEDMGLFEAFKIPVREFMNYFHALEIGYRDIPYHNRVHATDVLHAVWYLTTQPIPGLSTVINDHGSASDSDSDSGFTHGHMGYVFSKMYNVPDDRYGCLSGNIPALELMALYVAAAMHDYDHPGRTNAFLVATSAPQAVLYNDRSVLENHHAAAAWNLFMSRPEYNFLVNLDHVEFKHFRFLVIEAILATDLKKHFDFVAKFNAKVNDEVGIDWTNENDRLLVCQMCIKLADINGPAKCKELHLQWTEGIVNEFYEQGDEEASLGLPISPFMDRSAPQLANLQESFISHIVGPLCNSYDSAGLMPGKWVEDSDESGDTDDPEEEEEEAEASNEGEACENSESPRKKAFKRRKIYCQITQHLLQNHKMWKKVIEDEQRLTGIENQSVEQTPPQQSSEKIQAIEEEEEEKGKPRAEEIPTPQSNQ
Experimental: That is, for determining the obstructive activity against cyclic AMP phosphodiesterase, 10 ml of a solution obtained by adding 1 mmol of MgCl2 into 50 mmol of tris-hydrochloric acid buffer with pH 7.4 was added to the platelets obtained by further centrifuging the above-said rabbit PRP at 3,000 r.p.m. for 10 minutes, and the suspended platelets were ground by a Teflon potter type homogenizer. This was followed by two times of freezing and thawing treatment and 300-second fracturing with 200 watt supersonic waves. After additional 60-minute centrifugation with 100,000 G, the supernatant was collected to use it as a crude enzyme solution.
10 Milliliters of this crude buffer solution was added to a 1.5×20 cm DEAE-cellulose column which has previously been buffered with 50 mM of tris-acetate buffer (pH 6.0), followed by washing and elution with 30 ml of 50 mM tris-acetate buffer, and this buffer solution was subjected to linear gradient elution with 0 to 0.5 moles of sodium acetate-tris-acetatebuffer (total amount of elute was 300 ml.). The flow rate was 0.5 ml/min, and 5 ml of each fraction was batched out. […] This fraction was used as cyclic AMP phosphodiesterase.
0.1 Milliliter of an aqueous solution of each test compound of a specified concentration was mixed with 40 mmol of tris-hydrochloric acid buffer (pH 8.0, containing 50 μg of cow serum albumin and 4 mmol of MgCl2) containing predetermined 1.0 μmol of cyclic AMP (tritium cyclic AMP), and 0.2 ml of this mixed solution was used as substrate solution.
0.2 Milliliter of the above-prepared cyclic AMP phosphodiesterase of a predetermined concentration was added to said substrate solution and the mixture was reacted at 30° C. for 20 minutes, producing tritium 5'-AMP from the tritium cyclic AMP.
The reaction system was then immersed in boiling water for 2 minutes to stop the reaction, and then this reaction solution was cooled in ice water and, for converting the produced tritium 5'-AMP into tritium adenosine, the solution was added with 0.05 ml (1 mg/ml) of snake poison as 5'-nucleotidase and reacted at 30° C. for 10 minutes. The whole amount of this reaction solution was then added to a cation exchange resin (AG 500 W×4, 200-400 meshes, manufactured by Bio-Rad Co., column size: 0.5×1.5 cm), and the produced tritium anodesine alone was allowed to combine, washed with 6 ml of distilled water and eluted with 1.5 ml of 3 N-ammonia water. The whole quantity of the elutant was added with 10 ml of a triton-toluene type scintillator and the produced tritium adenosine was measured by a liquid scintillation counter to determine the phosphodiesterase activity.
In this way, the phosphodiesterase activation value (Vs) of the test compounds of the respective concentrations was determined, and the phosphodiesterase obstruction rate (%) was determined from said activation value (Vs) and control value (Vc) (obtained from water not containing any test compound) from the following formula: [formula] Known 1-methyl-3-isobutylxanthine was used as control.

Acute Toxicity Test = conditions: mouse, in vivo; male mice, oral administration
Experimental: The test compounds were administered orally to the mice and LD50 (mg/kg) of the compounds was determined.

Wistar strain male rats = test: Test of increasing effect of heart rate; type: in vivo, rat; conditions: 30 mg/kg oral, 60 minutes after the administration
Experimental: Wistar strain male rats, having 180-230 g of body weight, were abstained from food for 24 hours, the electrocardiograms introduced from the second induction period were recorded on oscillograph. The heart rate was calculated from the electrocardiograms by observing them for 10 seconds several times. […] 60 Minutes after the administration, the heart rate was measured and increasing effect of the heart rate was calculated. Generally, an average heart rate of an usual Wistar strain male rat is about 320 beat/minute.

[4] = concentration of the test compound solution 10^-5 mole
[5] = concentration of the test compound solution 10^-6 mole
[6] = concentration of the test compound solution 10^-5 mole, read-out: Inhibition effect on ADP-induced aggregation
[7] = concentration of the test compound solution 10^-6 mole, read-out: Inhibition effect on ADP-induced aggregation
[8] = read-out: Inhibition effect on ADP-induced aggregation

| Structure (SMILES) | inhibition at 10 µM [1, 4] [%] | inhibition at 1 µM [1, 5] [%] | inhibition at 100 µM [2] [%] | inhibition at 10 µM [2, 6] [%] | inhibition at 1 µM [2, 7] [%] | IC50 [3] [nM] | LD50 (Acute Toxicity Test) [mg/kg] | Increasing effect of heart rate (Wistar strain male rats) [Beat/min.] | inhibition at 0.1 µM [1] [%] | inhibition at 1 µM [1] [%] | inhibition at 10 µM [1] [%] | inhibition at 0.1 µM [2, 8] [%] | inhibition at 1 µM [2, 8] [%] | inhibition at 10 µM [2, 8] [%] |
| --- | --- | --- | --- | --- | --- | --- | --- | --- | --- | --- | --- | --- | --- | --- |
| CN(CC1CCCCO1)C(=O)CCCOc1ccc2[nH]c(=O)ccc2c1 (stereo not drawn) [No. 6, 6-{3-[N-Methyl-N-(2-tetrahydropyranylmethyl)aminocarbonyl]propoxy}carbostyril] | 48.1 | 3.8 | 75 | 24.6 | 14.7 | 52 | > 1000 | 40 |  |  |  |  |  |  |
| CN(C(=O)CCCOc1ccc2[nH]c(=O)ccc2c1)C1CCCCC1 [No. 39, 6-[3-(N--Methyl-N--cyclohexylaminocarbonyl)-propoxy]carbostyril, reference compound] |  |  |  |  |  | 16 |  | 104 | 57 | 90.2 | 90.5 | 32.8 | 62.1 | 91.7 |
| O=C(CCCOc1ccc2[nH]c(=O)ccc2c1)N1CCN(c2ccccc2)CC1 [No. 14, 6-[3-(4-Phenyl-1-piperazinylcarbonyl)propoxy]carbostyril] | 100 | 31 | 100 | 87.7 | 15.7 | 52 | > 1000 | 32 |  |  |  |  |  |  |
